Patent US20150305333A1, “USE OF GLUCOSAMINE AMIDES AS PLANT GROWTH AND YIELD ENHANCERS” (PIONEER HI-BRED INTERNATIONAL, INC., priority 2012, published 2015)

Legend:
[1] = test system: canola (Brassica napus) Pioneer hybrid 45H29; assay: Canola field trials 2011: early growth, days to maturity, height, yield; format: in vivo; settings: at plant maturity, averaged across three locations; NPG 10^−7 M, LCO/rhizobia at manufacturers' recommended rates
Description: Three canola (Brassica napus) field trials were conducted in the spring of 2011 to evaluate the effects of NPG on early growth, days to maturity, height and yield for Pioneer hybrid 45H29 planted at research sites near Carman, Neepawa, and Treherne (Manitoba, Canada) in 2011. Seed treatments included an Untreated Control, 10^−7 M NPG, and a mixture of a commercial LCO and rhizobia. An aqueous solution of NPG was applied at 0.25 L/100 kg seed by soaking the seeds in aqueous solutions of the respective treatments for 15 minutes followed by air drying on a tray. Untreated Control seeds were treated identically with the exception of being soaked in water without added NPG, LCO or rhizobia. The LCO/rhizobia mixture was applied to seeds at the manufacturers' recommended rates. […]
Early growth was scored on a 1-9 scale using a subjective evaluation of the ‘healthiness’ of plants and the soil surface area covered by their leaves when the plants are in the 4-6 leaf stage. […]
Days to maturity was measured from time of planting to physiological maturity, which was recorded in days from planting until the seeds in the pod, one third of the way up the main raceme, changed color to black in 50% of the plants in a given row or plot. […]
Plant height was measured at plant maturity. […]
Yield was measured in bushels per acre of mature seed. […]

[2] = test system: Shepody potatoes (Solanum tuberosum); assay: Potato field trial 2010: emergence, flowering, marketable yield; format: in vivo; settings: for Marketable Potato Yield for One Row of Plot: one 8 m row, fresh weight
Description: A potato field trial was conducted to evaluate the effects of NPG on plant emergence, flowering and yield in Shepody potatoes (Solanum tuberosum) planted near Thorndale, Ontario, Canada, in 2010. Seed treatments included an Untreated Control, three concentrations of NPG and three concentrations of an LCO derived from Bradyrhizobium japonicum to serve as a positive control. The LCO was provided by Dr. Don Smith (McGill University, Montreal, Canada) using the basic method described in Soulemanov, A., et al., in Microbiol. Res., 157: 25-28 (2005). Aqueous solutions of NPG and LCO were applied at 10^−6M, 10^−7M and 10^−8M to seed pieces using a spray nozzle and left to soak on a plastic sheet for 20 minutes. The seed pieces were beginning to sprout when planted on June 8th in a loam composed of 41% sand, 39% silt and 20% clay and 4.5% organic matter.
Potatoes were planted at a rate of 33,300 seed pieces/ha to a depth of 20 cm and hilled using a tractor mounted potato hiller. Weeds were controlled using three L/ha of 40.6 wt % linuron. Insects were controlled using 250 ml/ha 18.4 wt % chlorantraniprole, and disease was controlled using a tank mix of 1.6 kg/ha 75 wt % mancozeb and 225 g/ha 60 wt % cymoxanil fungicides. Before harvest, plants were sprayed twice (seven days apart) with 39.5 wt % diquat dibromide herbicide at a rate of 2 L/ha. All of the products used are industry standards and representative of what is used in commercial production.
The trial was conducted using a randomized complete block design with a plot size of 2 m by 8 m with a 100 cm row spacing, 30 cm plant spacing and four replications Due to wet weather, the soil was damp and cloddy during the planting and hilling process.
Marketable potato yield was determined by harvesting one entire 8 m row of the plot (Table 3). The Untreated Control row with the highest emergence was harvested. Yields were not corrected for differences in emergence rates. The 10^−6 M and 10^−7 M NPG treatments and the 10^−8 M LCO treatment provided a statistically significant increase in marketable fresh weight yield compared to the Untreated Control.

CCCCCCC=CCCCCCCCC(=O)NC1C(OC)OC(CO)C(O)C1O [NPG, Methyl 2-deoxy-2-N-(hexadece-9,10-cis-eneoyl)-β-D-glucopyranoside]
Plant height [1]: 114.2 cm | Potato Emergence ([2]; 10^−6M seed piece treatment, 15 DAP): 16b % | Potato Emergence ([2]; 10^−6M seed piece treatment, 17 DAP): 41b % | Potato Emergence ([2]; 10^−6M seed piece treatment, 21 DAP): 68c % | Potato Emergence ([2]; 10^−6M seed piece treatment, 29 DAP): 72c % | Potato Flowering ([2]; 10^−6M seed piece treatment, 42 DAP): 19a % | Potato Flowering ([2]; 10^−6M seed piece treatment, 50 DAP): 53ab % | Marketable Potato Yield for One Row of Plot ([2]; 10^−6M seed piece treatment): 17.92b Kg/Plot | Potato Emergence ([2]; 10^−7M seed piece treatment, 15 DAP): 9ab % | Potato Emergence ([2]; 10^−7M seed piece treatment, 17 DAP): 30ab % | Potato Emergence ([2]; 10^−7M seed piece treatment, 21 DAP): 48b % | Potato Emergence ([2]; 10^−7M seed piece treatment, 29 DAP): 52b % | Potato Flowering ([2]; 10^−7M seed piece treatment, 42 DAP): 20a % | Potato Flowering ([2]; 10^−7M seed piece treatment, 50 DAP): 47ab % | Marketable Potato Yield for One Row of Plot ([2]; 10^−7M seed piece treatment): 16.05b Kg/Plot | Potato Emergence ([2]; 10^−8M seed piece treatment, 15 DAP): 13ab % | Potato Emergence ([2]; 10^−8M seed piece treatment, 17 DAP): 30ab % | Potato Emergence ([2]; 10^−8M seed piece treatment, 21 DAP): 45b % | Potato Emergence ([2]; 10^−8M seed piece treatment, 29 DAP): 55b % | Potato Flowering ([2]; 10^−8M seed piece treatment, 42 DAP): 11a % | Potato Flowering ([2]; 10^−8M seed piece treatment, 50 DAP): 54ab % | Marketable Potato Yield for One Row of Plot ([2]; 10^−8M seed piece treatment): 13.80ab Kg/Plot
